Earlier results as cited in patent US20100262098A1, “ABSORBENT ARTICLE WITH ODOUR CONTROL SUBSTANCE” (SCA Hygiene Products AB, priority 2007, published 2010).

Settings: autoxidation at 100° C.; not treated with antioxidants

SMILES | Relative rate of oxidation
CCCCC/C=C\C/C=C\CCCCCCCC(=O)O [Linoleic acid] | 64
CCCCCCCC/C=C\CCCCCCCC(=O)O [Oleic acid] | 6
CCCCCCCCCCCCCCCCCC(=O)O [Stearic acid] | 0.6
